Assay results: US20180344856A1, “COMPOSITIONS AND/OR ARTICLES WITH IMPROVED SOLUBILITY OF A SOLID ACTIVE” (The Procter & Gamble Company, priority 2012, published 2018)

Key:
[1] = Solvency of solvents for hexylresorcinol, visual check for crystals after storage; assay type: physicochemical; details: solute hexylresorcinol, 33.5% test solution, approximately 1:2 solute to solvent ratio, soluble = no visible crystals
Method: (§1) In the testing provided below, “soluble” (or “solubilize”), in relation to the solubility of a solid solute being tested, means that no visible crystals may be seen after a prescribed storage period at a storage condition. The storage period can vary. Suitable storage periods include about 24 hours, about 1 week, and about 30 days. Suitable storage conditions include ambient conditions or cold storage at 5° C. (approximately 1 atm). In certain embodiments, solubility may be determined after a 24 hour storage period at ambient conditions. In other embodiments, solubility may be determined after 20 days in cold storage. Other testing parameters may include storage for prolonged time periods (e.g., 30 day, 50 days, 60 days, 90 days) and at variable temperatures (e.g., 5° C., 50° C.).
(§2) The solvency of an isosorbide diester within the scope of the present invention was tested against two conventional, industry standard solvents. […] A test solution of 33.5% hexylresorcinol is prepared with heating to 70° C. Upon reaching 70° C., the examples may be mixed for about 10 minutes. Place mixtures in a covered vial and cool to the storage temperature. Solubility is evaluated for samples stored 24 hours at ambient conditions. Solubility is also evaluated for samples stored for 7 day at 5° C. followed by equilibration to ambient conditions.

[2] = Solvency of solvents for tetrahydrocurcuminoids (THC), visual check for crystals after storage; details: solute tetrahydrocurcuminoids (THC), 3% test solution, approximately 1:32 solute to solvent ratio, soluble = no visible crystals
[3] = Solvency of solvents for (S)-Equol, visual check for crystals after storage; assay type: physicochemical; details: solute (S)-Equol, 6% test solution, approximately 1:16 solute to solvent ratio, soluble = no visible crystals
Method: as §1
as §2, with “solution was” for “solution”, “6% Equol” for “33.5% hexylresorcinol”

[4] = then equilibration to ambient conditions

CCCCCCCCCCCC(=O)N(C)CC(=O)OC(C)C [Isopropyl lauroyl sarcosinate, isopropyl lauroyl sarcosinate]
Soluble: Solubility, 24 hour rest at Ambient Conditions ([1]; heated to 70° C.) | Solubility, 7 day storage at 5° C. [1, 4] | Solubility, 24 hour rest at Ambient Conditions ([2]; heated to 70° C.) | Solubility, 7 day storage at 5° C. [2, 4] | Solubility, 24 hour rest at Ambient Conditions ([3]; heated to 70° C.) | Solubility, 7 day storage at 5° C. [3, 4]
